According to patent US4428806A, “Process for producing brominated 1,3-dioxolen-2-ones” (priority 1981, dated 1984):
Counter-ions that a name gives are not always drawn. Like-named read-outs stand apart in the source and are kept apart here.

Tests used:
[1] = in vitro; type: in vitro ADME; conditions: pH 1.2
Method: (§1) 1. Test compounds: A and B above
Each of the test compounds was dissolved in an acidic medium (pH 1.2) consisting of 2.0 g of sodium chloride, 24 ml of 10% hydrochloric acid, 3.2 g of pepsin and 1000 ml of water. The solution was shaken at 37° C., and sampled periodically. The sample was subjected to high-performance liquid chromatography using a reversed phase partition column, and the degree of hydrolysis of each of the test compounds was determined from a decrease in its peak height.

[2] = Blood level in oral administration (ampicillin concentration in serum, bioassay); type: in vivo, mice (ddY-strain); conditions: mice; for Ratio of the concentration of ampicillin in the serum: 50 mg/kg as ampicillin, ratio to ampicillin trihydrate (C = 1.0)
Method: Each of the test compounds (as an aqueous solution having a concentration of 5 mg/ml as ampicillin) was orally administered in a dose of 50 mg/kg as ampicillin to four week old mice (ddY-strain, body weight about 20 g, five per group) which were caused to fast overnight. The blood was taken from the mice periodically, and the concentration of ampicillin in the serum was measured by a bioassay method. The blood Ampicillin level ratio was calculated from the following equation. [formula]

[3] = Conversion to ampicillin in 40% mouse blood (incubation and bioautography); type: in vitro ADME
Method: The resulting ampicillin ester hydrochloride was incubated at 37° C. for 10 minutes in 40% mouse blood, and then bioautographed.
The resulting ampicillin (5-phenyl-2-oxo-1,3-dioxolen-4-yl)methyl ester hydrochloride was incubated at 37° C. for […] in 40% mouse blood, and then bioautographed.
The product was incubated and bioautographed in the same way as in Referential Example 1.

[4] = in vitro; type: in vitro ADME; conditions: pH 7.5
Method: as §1
Each of the test compounds was dissolved in a basic medium (pH 7.5) consisting of 35.8 g of disodium phosphate, 6.0 ml of 10% hydrochloric acid and 2.8 g of pancreatin and 1000 ml of water, and the degree of hydrolysis of each test compound was determined as in the case of the acidic medium.

Cc1oc(=O)oc1COC(=O)[C@@H]1N2C(=O)[C@@H](NC(=O)[C@H](N)c3ccccc3)[C@H]2SC1(C)C [A, Ampicillin (5-methyl-2-oxo-1,3-dioxolen-4-yl) methyl ester hydrochloride]
metabolised at 1 h ([1]; acidic medium with pepsin): 7% | metabolised at 4 h ([1]; acidic medium with pepsin): 20% | Stability in the acidic medium (in words) [1]: much more stable than the known control compound (B) | Absorption, conversion to ampicillin and blood level (in words) ([2]; compared with C and B): easily absorbed and converted back to the original ampicillin in vivo, and shows a high blood level over a longer period of time than ampicillin (C) and the known ampicillin ester (B) | Conversion to ampicillin in mouse blood ([3]; 40% mouse blood, 37° C., 10 minutes): completely changed to ampicillin | metabolised at 1 h ([4]; basic medium with pancreatin): 80% | Stability in the basic medium (in words) [4]: much more stable than the known control compound (B)

CC1(C)S[C@@H]2[C@H](NC(=O)[C@H](N)c3ccccc3)C(=O)N2[C@H]1C(=O)OC1OC(=O)c2ccccc21 (stereo partly drawn) [B, Ampicillin phthalidyl ester hydrochloride]
metabolised at 20 h ([1]; acidic medium with pepsin): 100% | metabolised at 20 min ([4]; basic medium with pancreatin): 90% | metabolised at 1 h ([4]; basic medium with pancreatin): 100%

CC1(C)S[C@@H]2[C@H](NC(=O)[C@H](N)c3ccccc3)C(=O)N2[C@H]1C(=O)O [C, Ampicillin trihydrate]
Ratio of the concentration of ampicillin in the serum ([2]; 15 min): 1.0 | Ratio of the concentration of ampicillin in the serum ([2]; 30 min): 1.0 | Ratio of the concentration of ampicillin in the serum ([2]; 60 min): 1.0 | Ratio of the concentration of ampicillin in the serum ([2]; 90 min): 1.0 | Ratio of the concentration of ampicillin in the serum ([2]; 120 min): 1.0 | Ratio of the concentration of ampicillin in the serum ([2]; 180 min): 1.0

CC1(C)S[C@@H]2[C@H](NC(=O)[C@H](N)c3ccccc3)C(=O)N2[C@H]1C(=O)OC1CCCc2oc(=O)oc21 (stereo partly drawn) [Referential Example 1, ampicillin (2,3-carbonyldioxy-2-cyclohexenyl) ester hydrochloride]
Conversion to ampicillin in mouse blood [3]: changed completely to ampicillin

CC1(C)S[C@@H]2[C@H](NC(=O)[C@H](N)c3ccccc3)C(=O)N2[C@H]1C(=O)OCc1oc(=O)oc1-c1ccccc1 [Referential Example 2, ampicillin (5-phenyl-2-oxo-1,3-dioxolen-4-yl)methyl ester hydrochloride]
Conversion to ampicillin in mouse blood [3]: completely changed to ampicillin
